# Where two headings read alike, the source gives them in different places.
# Assays:
# Format in all cases: cell-based
# [1] = tested on: K. pneumoniae 4104; assay: MIC against K. pneumoniae 4104; details: K. pneumoniae 4104, KPC-3, TEM-1
# Experimental: (§1) As shown, the foregoing composition was tested for minimum inhibitory concentration (MIC, μg/mL) against bacteria listed in Tables 2-3.
# [2] = tested on: K. pneumoniae 4105; assay: MIC against K. pneumoniae 4105; details: K. pneumoniae 4105, KPC-3, TEM-1, SHV-11
# Experimental: as §1
# [3] = tested on: K. pneumoniae 4106; assay: MIC against K. pneumoniae 4106; details: K. pneumoniae 4106, KPC-3, TEM-1, SHV-12, SHV-141
# Experimental: as §1
# [4] = tested on: K. pneumoniae 4107; assay: MIC against K. pneumoniae 4107; details: K. pneumoniae 4107, KPC-2, TEM-1, SHV-11
# Experimental: as §1
# [5] = tested on: K. pneumoniae 4108; assay: MIC against K. pneumoniae 4108; details: K. pneumoniae 4108, KPC-3, TEM-166, SHV-12, SHV-141
# Experimental: as §1
# [6] = tested on: K. pneumoniae 2689; assay: MIC against K. pneumoniae 2689; details: K. pneumoniae 2689, KPC-2
# Experimental: as §1
# [7] = tested on: E. cloacae 2689; assay: MIC against E. cloacae 2689; details: Table 3, E. cloacae 2689, KPC-2
# Experimental: as §1
# [8] = tested on: E. cloacae 2705; assay: MIC against E. cloacae 2705; details: Table 3, E. cloacae 2705, VIM-1, KPC-3type
# Experimental: as §1
# [9] = tested on: E. cloacae 2706; assay: MIC against E. cloacae 2706; details: Table 3, E. cloacae 2706, VIM-1, KPC-3
# Experimental: as §1
# [10] = tested on: E. cloacae 2709; assay: MIC against E. cloacae 2709; details: Table 3, E. cloacae 2709, KPC-3, VIM-1
# Experimental: as §1
# [11] = tested on: E. cloacae 2710; assay: MIC against E. cloacae 2710; details: Table 3, E. cloacae 2710, KPC-3, VIM-1
# Experimental: as §1
# [12] = tested on: E. coli 2666; assay: MIC against E. coli 2666; details: Table 3, E. coli 2666, KPC-2
# Experimental: as §1
# [13] = tested on: E. coli 4103; assay: MIC against E. coli 4103; details: Table 3, E. coli 4103, KPC-2, TEM-1, CMY-type
# Experimental: as §1
# [14] = tested on: K. pneumoniae 2690; assay: MIC against K. pneumoniae 2690; details: Table 3, K. pneumoniae 2690, KPC-2
# Experimental: as §1
# [15] = tested on: K. pneumoniae 2711; assay: MIC against K. pneumoniae 2711; details: Table 3, K. pneumoniae 2711, KPC-3, VIM-1
# Experimental: as §1
# [16] = tested on: K. pneumoniae 2712; assay: MIC against K. pneumoniae 2712; details: Table 3, K. pneumoniae 2712, KPC-3, VIM-1
# Experimental: as §1
# [17] = tested on: K. pneumoniae 2713; assay: MIC against K. pneumoniae 2713; details: Table 3, K. pneumoniae 2713, KPC-3, VIM-1
# Experimental: as §1
# [18] = tested on: K. pneumoniae 4088; assay: MIC against K. pneumoniae 4088; details: Table 3, K. pneumoniae 4088, KPC-3
# Experimental: as §1
# [19] = tested on: P. aeruginosa 2686; assay: MIC against P. aeruginosa 2686; details: Table 3, P. aeruginosa 2686, KPC-2
# Experimental: as §1
# [20] = Klebsiella pneumoniae, 4104, Table 3, alone, read-out: MIC
# [21] = Table 3, in combination with NXL-104
# [22] = Klebsiella pneumoniae, 4105, Table 3, alone, read-out: MIC
# [23] = Klebsiella pneumoniae, 4106, Table 3, alone, read-out: MIC
# [24] = Klebsiella pneumoniae, 4107, Table 3, alone, read-out: MIC
# [25] = Klebsiella pneumoniae, 4108, Table 3, alone, read-out: MIC
# [26] = Klebsiella pneumoniae, 2689, Table 3, alone, read-out: MIC
# [27] = Enterobacter cloacae, alone, read-out: MIC
# [28] = Escherichia coli, alone, read-out: MIC
# [29] = Klebsiella pneumoniae, alone, read-out: MIC
# [30] = Pseudomonas aeruginosa, alone, read-out: MIC
SMILES,"MIC [1, 20]","MIC [1, 21]","MIC [2, 22]","MIC [2, 21]","MIC [3, 23]","MIC [3, 21]","MIC [4, 24]","MIC [4, 21]","MIC [5, 25]","MIC [5, 21]","MIC [6, 26]","MIC [6, 21]","MIC [7, 27]",MIC ([7]; in combination with NXL-104),"MIC [8, 27]",MIC ([8]; in combination with NXL-104),"MIC [9, 27]",MIC ([9]; in combination with NXL-104),"MIC [10, 27]",MIC ([10]; in combination with NXL-104),also measured
"CO/N=C(\C(=O)N[C@@H]1C(=O)N2C(C(=O)[O-])=C(C[n+]3ccc4c(ccn4Cc4cc(C(=N)Nc5ccccc5)cs4)c3)CS[C@H]12)c1nc(N)sc1Cl [Example 12, (6R,7R)-7-{[(2Z)-2-(2-Amino-5-chloro-1,3-thiazol-4-yl)-2-(methoxyimino)acetyl]amino}-8-oxo-3-[(1-{[4-(N-phenylcarbamimidoyl)thiophen-2-yl]methyl}-1H-pyrrolo[3,2-c]pyridin-5-ium-5-yl)methyl]-5-thia-1-azabicyclo[4.2.0]oct-2-ene-2-carboxylate]",16 µg/mL,1 µg/mL,32 µg/mL,2 µg/mL,32 µg/mL,2 µg/mL,16 µg/mL,1 µg/mL,32 µg/mL,1 µg/mL,16 µg/mL,1 µg/mL,32 µg/mL,1 µg/mL,> 32 µg/mL,>32 µg/mL,> 32 µg/mL,>32 µg/mL,32 µg/mL,4 µg/mL,"MIC [11, 27]: > 32 µg/mL; MIC ([11]; in combination with NXL-104): >32 µg/mL; MIC [12, 28]: 16 µg/mL; MIC ([12]; in combination with NXL-104): 1 µg/mL; MIC [13, 28]: > 32 µg/mL; MIC ([13]; in combination with NXL-104): 4 µg/mL; MIC [14, 29]: 8 µg/mL; MIC ([14]; in combination with NXL-104): 1 µg/mL; MIC [15, 29]: 4 µg/mL; MIC ([15]; in combination with NXL-104): 0.5 µg/mL; MIC [16, 29]: > 32 µg/mL; MIC ([16]; in combination with NXL-104): 4 µg/mL; MIC [17, 29]: > 32 µg/mL; MIC ([17]; in combination with NXL-104): 2 µg/mL; MIC [18, 29]: > 32 µg/mL; MIC ([18]; in combination with NXL-104): 2 µg/mL; MIC [19, 30]: 32 µg/mL; MIC ([19]; in combination with NXL-104): 32 µg/mL"
"CO/N=C(\C(=O)N[C@@H]1C(=O)N2C(C(=O)[O-])=C(C[n+]3ccc4c(ccn4Cc4cc(C(=N)Nc5nccs5)cs4)c3)CS[C@H]12)c1nc(N)sc1Cl [Example 14, (6R,7R)-7-{[(2Z)-2-(2-Amino-5-chloro-1,3-thiazol-4-yl)-2-(methoxyimino)acetyl]amino}-8-oxo-3-{[1-({4-[N-(1,3-thiazol-2-yl)carbamimidoyl]thiophen-2-yl}methyl)-1H-pyrrolo[3,2-c]pyridin-5-ium-5-yl]methyl}-5-thia-1-azabicyclo[4.2.0]oct-2-ene-2-carboxylate]",32 µg/mL,1 µg/mL,> 32 µg/mL,2 µg/mL,> 32 µg/mL,4 µg/mL,16 µg/mL,2 µg/mL,> 32 µg/mL,2 µg/mL,32 µg/mL,1 µg/mL,16 µg/mL,0.5 µg/mL,> 32 µg/mL,>32 µg/mL,> 32 µg/mL,32 µg/mL,32 µg/mL,4 µg/mL,"MIC [11, 27]: > 32 µg/mL; MIC ([11]; in combination with NXL-104): >32 µg/mL; MIC [12, 28]: 32 µg/mL; MIC ([12]; in combination with NXL-104): 1 µg/mL; MIC [13, 28]: > 32 µg/mL; MIC ([13]; in combination with NXL-104): 8 µg/mL; MIC [14, 29]: 32 µg/mL; MIC ([14]; in combination with NXL-104): 1 µg/mL; MIC [15, 29]: 4 µg/mL; MIC ([15]; in combination with NXL-104): 0.5 µg/mL; MIC [16, 29]: > 32 µg/mL; MIC ([16]; in combination with NXL-104): 4 µg/mL; MIC [17, 29]: > 32 µg/mL; MIC ([17]; in combination with NXL-104): 2 µg/mL; MIC [18, 29]: > 32 µg/mL; MIC ([18]; in combination with NXL-104): 4 µg/mL; MIC [19, 30]: > 32 µg/mL; MIC ([19]; in combination with NXL-104): 16 µg/mL"
"CC(C)(O/N=C(\C(=O)N[C@@H]1C(=O)N2C(C(=O)[O-])=C(C[n+]3ccc4n(Cc5ccc(C(=N)N)cc5)ccn43)CS[C@H]12)c1csc(N)n1)C(=O)O [Example 4, (6R,7R)-7-{[(2Z)-2-(2-Amino-1,3-thiazol-4-yl)-2-{[(2-carboxypropan-2-yl)oxy]imino}acetyl]amino}-3-{[1-(4-carbamimidoylbenzyl)-1H-imidazo[1,2-b]pyrazol-5-ium-5-yl]methyl}-8-oxo-5-thia-1-azabicyclo[4.2.0]oct-2-ene-2-carboxylate]",16 µg/mL,1 µg/mL,> 32 µg/mL,2 µg/mL,32 µg/mL,4 µg/mL,32 µg/mL,2 µg/mL,> 32 µg/mL,2 µg/mL,16 µg/mL,1 µg/mL,4 µg/mL,0.5 µg/mL,> 32 µg/mL,>32 µg/mL,> 32 µg/mL,32 µg/mL,8 µg/mL,4 µg/mL,"MIC [11, 27]: > 32 µg/mL; MIC ([11]; in combination with NXL-104): >32 µg/mL; MIC [12, 28]: 32 µg/mL; MIC ([12]; in combination with NXL-104): 2 µg/mL; MIC [13, 28]: > 32 µg/mL; MIC ([13]; in combination with NXL-104): 8 µg/mL; MIC [14, 29]: 16 µg/mL; MIC ([14]; in combination with NXL-104): 2 µg/mL; MIC [15, 29]: 8 µg/mL; MIC ([15]; in combination with NXL-104): 1 µg/mL; MIC [16, 29]: > 32 µg/mL; MIC ([16]; in combination with NXL-104): 4 µg/mL; MIC [17, 29]: > 32 µg/mL; MIC ([17]; in combination with NXL-104): 2 µg/mL; MIC [18, 29]: > 32 µg/mL; MIC ([18]; in combination with NXL-104): 4 µg/mL; MIC [19, 30]: 32 µg/mL; MIC ([19]; in combination with NXL-104): 8 µg/mL"

# From patent publication USRE48097E1, “Cephem compounds, their production and use” (priority 2015, dated 2020)
